Test results from ChEMBL document CHEMBL4033717, “Synthesis and anticancer activity of novel aza-artemisinin derivatives” (Bioorg Med Chem, 2017).

Legend:
[1] = test system: CCRF-CEM; test: Anti-proliferative activity against human CEM cells after 4 days by coulter counting method; assay type: functional, cell-based; conditions: 96 h
[2] = test system: HMEC-1; test: Anti-proliferative activity against HMEC1 cells after 3 days by coulter counting method; assay type: cell-based; conditions: Homo sapiens, HMEC-1, 72 h
[3] = test system: HeLa; test: Anti-proliferative activity against human HeLa cells after 3 days by coulter counting method; assay type: functional, cell-based; conditions: 72 h
[4] = Selectivity ratio of IC50 for HMEC1 cells to IC50 for human CEM cells

| Compound | IC50 [1] | IC50 [2] | IC50 [3] | Ratio IC50 [4] |
| --- | --- | --- | --- | --- |
| C[C@@H]1CC[C@H]2[C@@H](C)C(=O)N[C@@H]3O[C@@]4(C)CC[C@@H]1[C@]32OO4 | 150 µM | > 250 µM | 147 µM |  |
| C[C@@H]1CC[C@H]2[C@@H](C)C(OCCn3nnc4c3CCc3ccccc3-4)O[C@@H]3O[C@@]4(C)CC[C@@H]1[C@]32OO4 (stereo partly drawn) | 157 µM | > 250 µM | > 250 µM |  |
| C[C@H]1[C@H](OC(=O)C2CCc3c(nnn3CCc3c[nH]c4ccccc34)C2)O[C@@H]2O[C@@]3(C)CC[C@H]4[C@H](C)CC[C@@H]1[C@@]24OO3 (stereo partly drawn) | 3.9 µM | 40 µM | 12 µM |  |
| COc1cc(-n2cc(CN3C(=O)[C@H](C)[C@@H]4CC[C@@H](C)[C@@H]5CC[C@@]6(C)OO[C@]54[C@H]3O6)nn2)cc(OC)c1OC | 17 µM | 155 µM | 19 µM | 8 - 50 |
| C[C@@H]1CC[C@H]2[C@@H](C)C(OCCn3nnc4c3C[C@@H]3CC[C@@H]5[C@H](CC[C@]6(C)[C@@H](O)CC[C@@H]56)[C@@]3(C)C4)O[C@@H]3O[C@@]4(C)CC[C@@H]1[C@]32OO4 (stereo partly drawn) | 8.9 µM | 28 µM | 16 µM |  |
| C[C@@H]1CC[C@H]2[C@@H](C)C(=O)N(Cc3cn(C4OC(COCc5ccccc5)[C@H](OCc5ccccc5)[C@@H]4OCc4ccccc4)nn3)[C@@H]3O[C@@]4(C)CC[C@@H]1[C@@]23OO4 (stereo partly drawn) | > 250 µM | > 250 µM | ≥ 250 µM |  |
| C[C@@H]1CC[C@H]2[C@@H](C)C(OCCn3nncc3-c3ccc(Br)c(Br)c3)O[C@@H]3O[C@@]4(C)CC[C@@H]1[C@]32OO4 (stereo partly drawn) | 10 µM | 26 µM | 11 µM |  |
| C[C@@H]1CC[C@H]2[C@@H](C)C(=O)N(Cc3cn(C4CC(OC(=O)c5ccc(Cl)cc5)C(COC(=O)c5ccc(Cl)cc5)O4)nn3)[C@@H]3O[C@@]4(C)CC[C@@H]1[C@@]23OO4 (stereo partly drawn) | 2.6 µM | 24 µM | 6.1 µM |  |
| C[C@H]1[C@H](OC(=O)C2CCc3c(nnn3Cc3ccc4c(c3)OCO4)C2)O[C@@H]2O[C@@]3(C)CC[C@H]4[C@H](C)CC[C@@H]1[C@@]24OO3 (stereo partly drawn) | 2.8 µM | 35 µM | 11 µM |  |
| CC(C)c1cccc(-n2cc(CN3C(=O)[C@H](C)[C@@H]4CC[C@@H](C)[C@@H]5CC[C@@]6(C)OO[C@]54[C@H]3O6)nn2)c1 | 0.92 µM | 30 µM | 1.2 µM | 30 |
| C[C@@H]1CC[C@H]2[C@@H](C)C(OCCn3nnc4c3CCN(Cc3ccccc3)C4)O[C@@H]3O[C@@]4(C)CC[C@@H]1[C@]32OO4 (stereo partly drawn) | 20 µM | 30 µM | 19 µM |  |
| COc1cc2c(cc1OC)-c1nnn(CCOC3O[C@@H]4O[C@@]5(C)CC[C@H]6[C@H](C)CC[C@@H]([C@H]3C)[C@@]46OO5)c1CC2 (stereo partly drawn) | 30 µM | 150 µM | 36 µM |  |
| C=C(C)[C@@H]1CC[C@]2(C(=O)O)CC[C@]3(C)[C@H](CC[C@@H]4[C@@]5(C)Cc6nnn(CCOC7O[C@@H]8O[C@@]9(C)CC[C@H]%10[C@H](C)CC[C@@H]([C@H]7C)[C@@]8%10OO9)c6C(C)(C)[C@@H]5CC[C@]43C)[C@@H]12 (stereo partly drawn) | 5 µM | 121 µM | 24 µM |  |
| C[C@@H]1CC[C@H]2[C@@H](C)C(=O)N(Cc3cn(-c4ccccc4)nn3)[C@@H]3O[C@@]4(C)CC[C@@H]1[C@@]23OO4 | 5.1 µM | > 250 µM | 36 µM | 8 - 50 |
| C[C@@H]1CC[C@H]2[C@@H](C)C(OCCn3nnc4c3CCc3ccc([N+](=O)[O-])cc3-4)O[C@@H]3O[C@@]4(C)CC[C@@H]1[C@]32OO4 (stereo partly drawn) | 95 µM | 160 µM | 175 µM |  |
| C[C@@H]1CC[C@H]2[C@@H](C)C(OCCn3nncc3-c3cccc4ccccc34)O[C@@H]3O[C@@]4(C)CC[C@@H]1[C@]32OO4 (stereo partly drawn) | 11 µM | 24 µM | 12 µM |  |
| COC(=O)Cn1cc(CN2C(=O)[C@H](C)[C@@H]3CC[C@@H](C)[C@@H]4CC[C@@]5(C)OO[C@]43[C@H]2O5)nn1 | ≥ 250 µM | > 250 µM | > 250 µM |  |
| C#CCN1C(=O)[C@H](C)[C@@H]2CC[C@@H](C)[C@@H]3CC[C@@]4(C)OO[C@]32[C@H]1O4 | 104 µM | 241 µM | 98 µM |  |
| C[C@@H]1CC[C@H]2[C@@H](C)C(OCCn3nnc4c3-c3ccccc3CC4)O[C@@H]3O[C@@]4(C)CC[C@@H]1[C@]32OO4 (stereo partly drawn) | 21 µM | 35 µM | 20 µM |  |
| C[C@@H]1CC[C@H]2[C@@H](C)C(=O)N(Cc3cn(-c4ccc(C#N)cc4)nn3)[C@@H]3O[C@@]4(C)CC[C@@H]1[C@@]23OO4 | 18 µM | 26 µM | 36 µM |  |
| C[C@@H]1CC[C@H]2[C@@H](C)C(OCCn3nncc3-c3ccccc3)O[C@@H]3O[C@@]4(C)CC[C@@H]1[C@]32OO4 (stereo partly drawn) | 25 µM | 62 µM | 37 µM |  |
| COc1cc(Cn2nnc3c2CCC(C(=O)O[C@@H]2O[C@@H]4O[C@@]5(C)CC[C@H]6[C@H](C)CC[C@@H]([C@H]2C)[C@@]46OO5)C3)cc(OC)c1OC (stereo partly drawn) | 4.3 µM | 40 µM | 21 µM |  |
| COc1ccc2c(c1)-c1nnn(CCOC3O[C@@H]4O[C@@]5(C)CC[C@H]6[C@H](C)CC[C@@H]([C@H]3C)[C@@]46OO5)c1CC2 (stereo partly drawn) | 128 µM | 105 µM | 143 µM |  |
| COc1cc(-c2cnnn2CCOC2O[C@@H]3O[C@@]4(C)CC[C@H]5[C@H](C)CC[C@@H]([C@H]2C)[C@@]35OO4)ccc1O (stereo partly drawn) | 39 µM | 62 µM | 23 µM |  |
| Cc1ccc(Cn2nnc3c2CCC(C(=O)O[C@@H]2O[C@@H]4O[C@@]5(C)CC[C@H]6[C@H](C)CC[C@@H]([C@H]2C)[C@@]46OO5)C3)cc1 (stereo partly drawn) | 2.7 µM | 34 µM | 11 µM |  |
